Half-life data for one compound are collected here from PubChem BioAssay AID743034 (The Scripps Research Institute Molecular Screening Center, 2013).

Activity calls are given as the source filed them.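 The calls were made as follows: active = half-life above 60 minutes with both human and mouse liver microsomes; inactive = half-life below 60 minutes in both species.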

In data set [1] the test system is Pooled human microsomes. Put plainly: liver microsomal half-life of V1a-R antagonists, late-stage follow-up, ADME assay for V1a-R antagonist project, biochemical, LC-MS/MS, human and mouse microsomes, powder samples (AID 743034). The note with it: at 1 µM, hits give high values. On the technique in general: Liver microsomes are vesicles of endoplasmic reticulum, rich in cytochrome P450 enzymes.

Data set [2] concerns Pooled mouse microsomes. Described as above. The conditions noted are these: at 1 µM, hits give high values.

The term half-life denotes the time needed for the level to fall by half in the phase considered. Turning to `O=C(C1CCN(c2ccc(Cl)cn2)CC1)N(CC1CC1)c1ccc(Cl)cc1`, the half-life in data set [1] was 23.8 min (inactive); in data set [2], 7.8 min (inactive).
